Assays:
[1] = tested on: patients with relapsed/refractory T-cell lymphoma; test: Safety and tolerability of tenalisib plus romidepsin; format: in vivo, human; conditions: for Patients with three or more drug interruptions: during the combination treatment; for Patients with drug interruptions / Patients with dose reductions: overall, during combination treatment; for Patients with drug interruptions: PTCL and CTCL groups
CYP3A4 = conditions: also substrates for CYP3A4; ref not given; cited from earlier work
[2] = tested on: peripheral T-cell lymphoma (PTCL); conditions: PTCL patients; cited from earlier work
[3] = Plasma pharmacokinetics of tenalisib, IN0385 and romidepsin; format: in vivo, human; conditions: oral, all three cohorts
patients = conditions: cited from earlier work

CC[C@H](Nc1ncnc2[nH]cnc12)c1oc2ccccc2c(=O)c1-c1cccc(F)c1 [tenalisib]
Patients with three or more drug interruptions [1]: 12.1% | MTD/RP2D dose (recommended dose for dose expansion) in the combination ([1]; orally twice daily (BID), with romidepsin): 800 mg | Patients with drug interruptions [1]: 60.6% | Patients with dose reductions [1]: 27.3% | CYP3A4 inhibition (CYP3A4): moderate inhibitors | CR rate with monotherapy [2]: 20.0% | Absorption [3]: rapidly absorbed

C/C=C1\NC(=O)[C@H]2CSSCC/C=C/[C@H](CC(=O)N[C@H](C(C)C)C(=O)N2)OC(=O)[C@H](C(C)C)NC1=O [romidepsin, reference compound]
Patients with three or more drug interruptions [1]: 24.2% | MTD/RP2D dose (recommended dose for dose expansion) in the combination ([1]; intravenous, days 1, 8, 15 of 28-day cycle, with tenalisib): 14 mg/m^2 | Patients with drug interruptions [1]: 63.6% | Patients with dose reductions [1]: 33.3% | Discontinuation rates due to adverse events, single agent studies (patients): 19-28% | CR rate with monotherapy [2]: 14%
